Experimental data from patent US20260092039A1, “DUAL INHIBITORS FOR THE TREATMENT OF ALZHEIMER'S DISEASE” (UNIVERSITAT DE BARCELONA, priority 2023, published 2026).

Key:
[1] = target: T1, human recombinant glutaminyl cyclase (hQC) (Homo sapiens, UniProt Q16769); test: In vitro determination of human QC inhibitory activity (SensoLyte Green Glutaminyl Cyclase Activity Assay Kit); format: biochemical
T1 construct: purchased Eurogentec AS-72230
Procedure: Basic statistical analysis was performed.

LPS stimulated BV2 cells = test: Cytokine release in LPS stimulated BV2 cells; format: cell-based, murine; conditions: 24 h
Procedure: Compounds of formula I were diluted from 250 mM DMSO stock solutions to a 10 mM stock in DMSO. Thereafter, the compounds were diluted to 10 μM and 1 μM in medium, so that the final DMSO concentration in the well was 0.1% for all conditions. The stock solutions were stored at −20° C. until further use.
Culture and treatment of BV-2 cells: The murine microglial cell line BV-2 was cultivated in Dulbecco's modified eagle medium (DMEM) supplemented with 10% fetal calf serum (FCS), 1% penicillin/streptomycin and 2 mM L-glutamine (culture medium). For the lipopolysaccharide (LPS) stimulation assay, 20,000 BV-2 cells per well (uncoated 96 well plates) were plated out. After 48 h, the medium was changed to treatment medium (DMEM, 5% FCS, 2 mM L-glutamine) and cells were maintained in treatment medium for the remaining culture period. After changing cells to treatment medium, the compounds were administered 1 h before LPS stimulation (Sigma-Aldrich; L6529; 1 mg/mL stock in ddH2O, final concentration in well: 100 ng/mL (dilutions in medium)). Cells treated with vehicle and LPS alone served as controls. All wells were handled the same way. After 24 h of stimulation, cell supernatants were collected for the cytokine measurement. The experiment was performed in n=6 technical replicates for all groups.
Cytokine measurement: The samples were diluted 1:2 and analysed for 4 cytokines (IL-1β, IL-2, IL-6, TNF-α) with a commercially available immunosorbent assay kit (U-plex, K15069L, Mesoscale Discovery) according to the instructions of the manufacturer. In brief, 25 μL of diluent 41 and 25 μL sample or respective standard were placed into wells of the pre-coated U-plex plate and incubated on an orbital shaker at room temperature for 1 h. Plates were washed 3 times with phosphate buffered saline with 0.05% Tween 20 (PBST) and thereafter 50 μL of detection antibody were added. Plates were again incubated on an orbital shaker at room temperature for 1 h. After another 3 washing steps with PBST, 150 μL of Mesoscale Discovery (MSD) GOLD Read Buffer were added and plates were read on Sector imager. Data were evaluated in comparison to calibration curves provided in the kit.
Statistics: Basic statistical analysis was performed. Group differences were evaluated by e.g. one-way ANOVA followed by a posthoc test, if appropriate.

[2] = test system: primary mouse cortical neurons; test: LDH toxicity assay in mouse primary cortical neurons; format: cell-based
Procedure: The compounds were diluted from 250 mM DMSO stocks to a 100 mM stock in DMSO. Thereafter, compounds were diluted to 100 μM, 20 μM, 5 μM, 1 μM, 0.2 μM, 0.05 μM, 0.01 μM and 0.001 μM dilution in medium, so that the final DMSO concentration in the well was 0.1% for all conditions. Stock solutions were stored at −20° C. until further use.
Isolation and treatment of primary mouse cortical neurons: Primary cortical neurons were prepared from timed pregnant wild-type C57BL/6JRccHsd mice at E16.5-E18. Animals were sacrificed by carbon dioxide and embryos were dissected in Calcium and Magnesium free Hanks Balanced Salt Solution (CMF-HBSS) containing 15 mM HEPES and 10 mM NaHCO3, pH 7.2. Embryos were decapitated, skin and skull gently removed and cortical hemispheres were separated. After removing meninges and brain stem, the cortex was isolated, chopped with a sterile razor blade in Chop solution (Hibernate-E without Calcium containing 2% B-27) and digested in 2 mg/mL papain (Worthington) dissolved in Hibernate-E without Calcium for 30 min at 30° C. Cortices were triturated for 10-15 times with a fire-polished silanized Pasteur pipette in Hibernate-E without Calcium containing 2% B-27, 0.01% DNaseI, 1 mg/mL BSA, and 1 mg/mL Ovomucoid Inhibitor. Undispersed pieces were allowed to settle by gravity for 1 min and the supernatant was centrifuged for 3 min at 228 g. The pellet was resuspended in Hibernate-E containing 2% B-27, 0.01% DNaseI, 1 mg/mL BSA, 1 mg/mL Ovomucoid Inhibitor and diluted with Hibernate-E containing 2% B-27. After the second centrifugation step (3 min at 228 g), the pellet was resuspended in nutrition medium without glutamate (Neurobasal, 2% B-27, 0.5 mM glutamine, 1% Penicillin-Streptomycin). Cells were counted in a hemacytometer and seeded in nutrition medium on poly-D-lysine pre-coated plates. Cells were cultured at 37° C.; 95% humidity and 5% CO2. All wells were handled the same way. On DIV8, cells were treated with the compounds for the evaluation of the neurotoxic effect. On DIV9, the MTT and LDH assays were performed as described below. The experiments were performed in six technical replicates for all groups per experiment.
LDH toxicity assay: Supernatants of cells were subjected to the lactate dehydrogenase (LDH) toxicity assay by using the Cytotoxicity Detection Kit (Roche Diagnostics, Cat. No: 11 644 793 001). Seventy μL of cell culture supernatant was transferred to clear 96-well plates. Seventy μL freshly prepared reaction mixture was added to each well and the mixture was incubated for 20 to 30 min at room temperature protected from light. Absorbance was measured at 492 nm and 620 nm as reference wavelength. Cell death was expressed as optical density (OD). Values were calculated as percent of control values (vehicle control).

T1 sequence (Q16769 29-361): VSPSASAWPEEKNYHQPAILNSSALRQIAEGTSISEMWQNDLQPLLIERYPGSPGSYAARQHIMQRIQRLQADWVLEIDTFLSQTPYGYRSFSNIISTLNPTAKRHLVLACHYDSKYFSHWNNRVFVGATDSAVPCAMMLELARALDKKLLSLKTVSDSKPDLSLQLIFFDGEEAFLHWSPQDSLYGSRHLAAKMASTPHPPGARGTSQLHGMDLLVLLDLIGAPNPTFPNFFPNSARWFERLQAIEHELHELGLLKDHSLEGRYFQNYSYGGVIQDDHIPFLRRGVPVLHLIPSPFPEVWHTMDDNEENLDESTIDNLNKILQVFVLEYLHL

SMILES | IC50 [1] | IL-1β level (LPS stimulated BV2 cells; compound 1 μM) | IL-2 level (LPS stimulated BV2 cells; compound 1 μM) | IL-6 level (LPS stimulated BV2 cells; compound 1 μM) | TNF-α level (LPS stimulated BV2 cells; compound 1 μM) | IL-1β level (LPS stimulated BV2 cells; compound 10 μM) | IL-2 level (LPS stimulated BV2 cells; compound 10 μM) | IL-6 level (LPS stimulated BV2 cells; compound 10 μM) | TNF-α level (LPS stimulated BV2 cells; compound 10 μM) | LDH toxicity assay (cell death), primary cortical neurons ([2]; compound 0.001 μM) | LDH toxicity assay (cell death), primary cortical neurons ([2]; compound 0.01 μM) | LDH toxicity assay (cell death), primary cortical neurons ([2]; compound 0.05 μM) | LDH toxicity assay (cell death), primary cortical neurons ([2]; compound 0.2 μM) | LDH toxicity assay (cell death), primary cortical neurons ([2]; compound 1 μM) | LDH toxicity assay (cell death), primary cortical neurons ([2]; compound 5 μM) | LDH toxicity assay (cell death), primary cortical neurons ([2]; compound 20 μM) | LDH toxicity assay (cell death), primary cortical neurons ([2]; compound 100 μM)
CCC12CC3CC(C1)CC(NC(=O)NCCCn1cncc1C)(C3)C2 [Id, 1-(3-ethyladamantan-1-yl)-3-[3-(5-methyl-1H-imidazol-1-yl)propyl]urea] | 570 nM | 46 % of vehicle control | 38 % of vehicle control | 34 % of vehicle control | 98 % of vehicle control | 73 % of vehicle control | 26 % of vehicle control | 24 % of vehicle control | 84 % of vehicle control | 114 % of vehicle control | 104 % of vehicle control | 100 % of vehicle control | 100 % of vehicle control | 99 % of vehicle control | 102 % of vehicle control | 109 % of vehicle control | 157 % of vehicle control
Cc1cncn1CCCNC(=O)NC1C2CC3CC(C2)CC1C3 (centres unmarked) [Ii, 1-(adamantan-2-yl)-3-[3-(5-methyl-1H-imidazol-1-yl)propyl]urea] | 189 nM | 86 % of vehicle control | 66 % of vehicle control | 63 % of vehicle control | 104 % of vehicle control | 125 % of vehicle control | 48 % of vehicle control | 62 % of vehicle control | 103 % of vehicle control | 99 % of vehicle control | 97 % of vehicle control | 97 % of vehicle control | 94 % of vehicle control | 101 % of vehicle control | 100 % of vehicle control | 97 % of vehicle control | 113 % of vehicle control
Cc1cncn1CCCNC(=O)NC12CC3CC(CC(C)(C3)O1)C2 [Ir, 1-[3-(5-methyl-1H-imidazol-1-yl)propyl]-3-(3-methyl-2-oxaadamantan-1-yl)urea] | 139 nM | 77 % of vehicle control | 52 % of vehicle control | 37 % of vehicle control | 107 % of vehicle control | 94 % of vehicle control | 37 % of vehicle control | 38 % of vehicle control | 102 % of vehicle control | 100 % of vehicle control | 100 % of vehicle control | 101 % of vehicle control | 101 % of vehicle control | 100 % of vehicle control | 100 % of vehicle control | 101 % of vehicle control | 107 % of vehicle control
CCC12CC3CC(C1)CC(NC(=O)NCCCn1cncc1C)(C3)O2 [Is, 1-(3-ethyl-2-oxaadamantan-1-yl)-3-[3-(5-methyl-1H-imidazol-1-yl)propyl]urea] | 96 nM | 95 % of vehicle control | 66 % of vehicle control | 65 % of vehicle control | 104 % of vehicle control | 124 % of vehicle control | 48 % of vehicle control | 64 % of vehicle control | 104 % of vehicle control | 96 % of vehicle control | 97 % of vehicle control | 99 % of vehicle control | 98 % of vehicle control | 107 % of vehicle control | 102 % of vehicle control | 113 % of vehicle control | 107 % of vehicle control
